Legend:
[1] = test system: CCRF-CEM leukemia cells; assay: CCRF-CEM ASNase cell proliferation assay, phenotypic assay for cellular inhibition of GCN2; format: cell-based; settings: Homo sapiens; ASNase treated CCRF-CEM cells, 1 mU/mL ASNase, 72 h
Method: CCRF-CEM leukemia cells (catalog #CCL-116) were obtained from the American Type Culture Collect (ATTC, Manassas, VA). Cells were grown in RPMI-1640 medium supplemented with 10% heat-inactivated fetal bovine serum (Invitrogen, Carlsbad, CA) and 1% Penicillin/Streptomycin/L-Glutamine at 37° C., 5% CO2, and 95% humidity. Cells were expanded until reaching one million cells per mL at which time they are subcultured or harvested for assay use. Ten thousand cells per well in 200 μL RPMI-1640 supplemented with 10% heat-inactivated fetal bovine serum and 1% Penicillin/Streptomycin were dispensed into a 96-well black clear bottom plate. A serial dilution of test compound and 1 mU/mL ASNase was added in triplicate and plates were incubated for 72 h at 37° C., 5% CO2, and 95% humidity. At the end of the incubation, 40 μL of a […] solution of resazurin (Sigma, St. Louis, MO) in PBS was added to each well of the plate and plates were incubated for an additional 6 h at 37° C., 5% CO2, and 95% humidity. Plates were read on a Synergy2 or equivalent reader (Biotek, Winooski VT) using an excitation of 540 nm and an emission of 600 nm. Data was analyzed using GraphPad Prism software (GraphPad, San Diego, CA) to calculate IC50 values.

[2] = biological target: PERK kinase (Homo sapiens (Human), UniProt Q9NZJ5); assay: Biochemical assay for PERK (coupled pyruvate kinase/lactate dehydrogenase assay); settings: 1 mM ATP, rate from 2-3 h time frame
Chain of PERK kinase (Q9NZJ5 other isoform, or with tags, fused parts or gaps): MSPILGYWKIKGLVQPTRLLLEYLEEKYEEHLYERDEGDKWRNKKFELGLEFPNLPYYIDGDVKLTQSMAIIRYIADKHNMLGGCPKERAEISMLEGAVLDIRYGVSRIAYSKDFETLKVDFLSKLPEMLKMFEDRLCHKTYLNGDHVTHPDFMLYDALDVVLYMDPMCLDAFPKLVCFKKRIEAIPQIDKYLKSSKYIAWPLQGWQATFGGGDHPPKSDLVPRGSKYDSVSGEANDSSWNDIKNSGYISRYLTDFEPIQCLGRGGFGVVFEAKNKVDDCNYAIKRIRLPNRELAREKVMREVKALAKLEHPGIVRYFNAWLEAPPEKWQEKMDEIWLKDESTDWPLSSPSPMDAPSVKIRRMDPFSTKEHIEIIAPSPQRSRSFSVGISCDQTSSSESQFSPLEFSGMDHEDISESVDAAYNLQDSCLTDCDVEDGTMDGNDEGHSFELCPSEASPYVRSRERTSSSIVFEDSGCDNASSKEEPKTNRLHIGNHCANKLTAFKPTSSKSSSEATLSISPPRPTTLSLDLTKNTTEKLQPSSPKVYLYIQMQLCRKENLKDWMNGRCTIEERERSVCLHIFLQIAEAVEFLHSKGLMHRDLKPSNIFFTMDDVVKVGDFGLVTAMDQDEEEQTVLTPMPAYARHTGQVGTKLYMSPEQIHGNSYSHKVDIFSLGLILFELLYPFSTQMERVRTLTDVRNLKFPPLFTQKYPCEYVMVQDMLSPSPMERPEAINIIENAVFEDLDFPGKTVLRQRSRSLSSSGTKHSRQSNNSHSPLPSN
Summary of the method: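 Coupled pyruvate kinase/lactate dehydrogenase readout of ATP hydrolysis via NADH oxidation (A340), 10 nM PERK, 0.25 mg/mL myelin basic protein, 1 mM ATP, pH 7.5 Tris/MgCl2 buffer, 1% DMSO. Absorbance followed 6 h at 30° C; rate from the 2-3 h window, normalised to no-compound and known-inhibitor controls, IC50 fitted.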

[3] = biological target: GCN2 kinase (Homo sapiens (Human), UniProt Q9P2K8); assay: Biochemical assay for GCN2 (TR-FRET kinase activity assay); settings: 1 mM ATP, 3-hour incubation
Chain of GCN2 kinase (Q9P2K8 whole entry): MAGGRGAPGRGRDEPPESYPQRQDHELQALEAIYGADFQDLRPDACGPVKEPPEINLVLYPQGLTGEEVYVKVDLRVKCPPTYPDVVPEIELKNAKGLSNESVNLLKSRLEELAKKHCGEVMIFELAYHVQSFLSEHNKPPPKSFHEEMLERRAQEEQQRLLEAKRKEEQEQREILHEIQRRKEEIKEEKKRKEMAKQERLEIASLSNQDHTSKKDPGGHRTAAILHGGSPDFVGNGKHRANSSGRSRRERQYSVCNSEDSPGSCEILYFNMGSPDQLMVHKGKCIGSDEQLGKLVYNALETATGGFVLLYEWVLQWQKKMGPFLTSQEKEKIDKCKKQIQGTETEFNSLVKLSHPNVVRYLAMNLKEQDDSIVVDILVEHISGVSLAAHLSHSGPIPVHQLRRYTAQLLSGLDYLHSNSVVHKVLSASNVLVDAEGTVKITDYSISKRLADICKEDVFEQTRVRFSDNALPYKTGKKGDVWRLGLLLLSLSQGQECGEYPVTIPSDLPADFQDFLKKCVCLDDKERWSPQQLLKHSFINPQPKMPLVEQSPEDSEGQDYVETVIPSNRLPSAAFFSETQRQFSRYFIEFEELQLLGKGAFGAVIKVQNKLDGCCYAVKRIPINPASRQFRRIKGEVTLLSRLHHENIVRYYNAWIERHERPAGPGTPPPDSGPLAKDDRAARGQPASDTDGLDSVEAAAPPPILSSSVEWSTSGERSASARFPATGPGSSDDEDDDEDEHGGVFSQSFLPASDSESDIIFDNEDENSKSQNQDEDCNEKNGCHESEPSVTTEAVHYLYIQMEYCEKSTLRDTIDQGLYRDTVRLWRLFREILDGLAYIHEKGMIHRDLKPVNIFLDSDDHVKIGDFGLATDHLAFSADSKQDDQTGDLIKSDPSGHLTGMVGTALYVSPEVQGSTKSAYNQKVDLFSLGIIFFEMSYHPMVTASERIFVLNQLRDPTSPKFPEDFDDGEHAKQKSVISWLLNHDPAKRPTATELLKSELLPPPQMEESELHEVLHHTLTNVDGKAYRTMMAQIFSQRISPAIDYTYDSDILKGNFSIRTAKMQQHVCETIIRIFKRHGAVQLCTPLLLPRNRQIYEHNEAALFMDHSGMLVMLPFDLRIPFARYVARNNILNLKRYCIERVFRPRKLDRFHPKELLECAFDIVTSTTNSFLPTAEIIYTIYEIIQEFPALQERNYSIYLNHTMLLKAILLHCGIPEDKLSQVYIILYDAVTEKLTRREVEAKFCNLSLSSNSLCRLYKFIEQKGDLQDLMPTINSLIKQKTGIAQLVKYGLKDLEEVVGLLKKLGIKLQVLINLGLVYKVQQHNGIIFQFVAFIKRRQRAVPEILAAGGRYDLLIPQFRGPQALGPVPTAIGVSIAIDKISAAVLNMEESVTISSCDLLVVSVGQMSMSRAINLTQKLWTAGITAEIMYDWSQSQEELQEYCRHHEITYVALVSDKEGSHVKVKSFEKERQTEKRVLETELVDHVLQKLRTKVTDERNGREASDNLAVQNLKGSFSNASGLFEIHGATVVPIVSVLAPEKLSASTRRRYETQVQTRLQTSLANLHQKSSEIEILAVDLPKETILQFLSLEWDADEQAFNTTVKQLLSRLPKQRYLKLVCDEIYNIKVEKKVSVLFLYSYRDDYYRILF
Summary of the method: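 TR-FRET assay with 2 nM GCN2, 130 nM GFP-eIF2α substrate, 0.2 mg/mL E. coli tRNA and 1 mM ATP; compounds (0.5% DMSO) reacted 3 h. Stopped with 20 mM EDTA plus 2 nM Tb-anti-peIF2α (pSer52), 60 min RT; 520/490 ratio converted to % inhibition, IC50 from four-parameter fit.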

[4] = test system: ATF4 in HCT116 colorectal cancer cells; assay: HCT116 amino acid starved (-AA) ATF4 assay (Western blot); format: cell-based; settings: Homo sapiens, HCT-116, 4 h
Method: (§1) HCT116 colorectal cancer cells (catalog #CCL-247) were obtained from the American Type Culture Collect (ATTC, Manassas, VA). Briefly, cells were grown in RPMI 1640 supplemented with 10% heat inactivated fetal bovine serum (Invitrogen, Carlsbad, CA) and 1% Penicillin/Streptomycin/L-Glutamine at 37° C., 5% CO2, and 95% humidity. Cells were expanded until reaching 70-95% confluency at which point they were subcultured or harvested for assay use. Cells were seeded in 12-well culture plate at five hundred thousand cells per well in 1 mL complete growth medium and incubated overnight at 37° C., 5% CO2, and 95% humidity. The next day each well was replaced with 1 mL Earle's Balanced Salt Solution (EBSS, Invitrogen, Carlsbad, CA) supplemented with 10% Dialyzed Fetal Bovine Serum, 5.5 mM Glucose, 1% Penicillin/Streptomycin and 1% Vitamin solution (thermo #11120052). A serial dilution of test compound was dispensed into well. Plates were incubated for 4 h at 37° C., 5% CO2, and 95% humidity. At the end of the incubation, cells were washed with PBS supplemented with 1× Halt protease inhibitor, 1× Halt phosphatase inhibitor, 1× Sigma phosphatase inhibitor cocktail 2 and 1×EDTA and then lysed with M-PER Mammalian Protein Extraction Reagent supplemented with 3× of the inhibitor mix as described above. Cell lysates were sonicated with water bath sonicator (Qsonica, Newtown, CT) and supernatants were boiled with SDS buffer and reducing agent. Western blot was performed on each lysate to quantify phospho-GCN2 (Thr899), total GCN2, ATF4 and beta-Actin. Membranes were imaged with LI-COR Odyssey CLx Imaging System (LI-COR, Lincoln, NE). Data were analyzed using GraphPad Prism software (GraphPad, San Diego, CA) to calculate IC50 values.

[5] = test system: ATF4 in CCRF-CEM leukemia cells (PERK); assay: CCRF-CEM TG ATF4 ELISA, phenotypic assay for cellular inhibition of PERK preactivated by thapsigargin; format: cell-based; settings: Homo sapiens; Thapsigargin (1 μM) stimulated CCRF-CEM cells
Method: CCRF-CEM leukemia cells (catalog #CCL-116) were obtained from the American Type Culture Collection (ATTC, Manassas, VA). Briefly, cells were grown in RPMI-1640 medium supplemented with 10% heat-inactivated fetal bovine serum (Invitrogen, Carlsbad, CA) and 1% Penicillin/Streptomycin/L-Glutamine at 37° C., 5% CO2, and 95% humidity. Cells were expanded until reaching one million cells per mL at which time they were subcultured or harvested for assay use. One million five hundred thousand cells per well in 1 mL complete growth medium were dispensed into 12-well plates and incubated overnight. A serial dilution of test compound was added and cells were incubated at 37° C., 5% CO2, and 95% for three hours, then 1 μM thapsigargin was added and cells were incubated for an additional hour at 37° C., 5% CO2, and 95%. Cells were lysed then ATF4 levels were measured using an ELISA assay (Proteintech, Rosemont, IL). Absorbance was measured at 450 nm and 544 nM using a Synergy2 or equivalent reader (Biotek, Winooski VT). Data was analyzed using PRISM software (Graphpad, San Diego, CA) to calculate IC50 values.

[6] = test system: phospho-GCN2 (Thr899) in HCT116 colorectal cancer cells; assay: HCT116 amino acid starved (-AA) phospho-GCN2 assay (Western blot); format: cell-based; settings: Homo sapiens, HCT-116, 4 h, read-out: HCT116-AA pGCN2 Western Blot
Method: as §1

Compound | IC50 [1] | IC50 [2] | IC50 [3] | IC50 [4] | IC50 [5] | IC50 [6]
CNc1cc2nc(C)c(-c3ccc(F)c(NS(=O)(=O)c4cc(Cl)cc(CO)c4Cl)c3)cc2cn1 [Example 19] | 100 to 500 nM | ≤ 100 nM | ≤ 100 nM | ≤ 100 nM | 1000 to 10000 nM | ≤ 100 nM
CNc1cc2nc(C)c(-c3cc(NS(=O)(=O)c4cc(Cl)cc(CO)c4Cl)c(F)cc3F)cc2cn1 [Example 22] | ≤ 100 nM | ≤ 100 nM | ≤ 100 nM | ≤ 100 nM | 1000 to 10000 nM | ≤ 100 nM
CNc1cc2nc(C)c(-c3cc(F)cc(NS(=O)(=O)c4cc(Cl)cnc4OC)c3)cc2cn1 [Example 23] | 100 to 500 nM | ≤ 100 nM | ≤ 100 nM | ≤ 100 nM | 1000 to 10000 nM | ≤ 100 nM
CNc1ncc2cc(-c3cc(NS(=O)(=O)c4cc(Cl)cnc4OC)cc(F)c3C)c(C)nc2n1 [Example 26] | ≤ 100 nM | ≤ 100 nM | ≤ 100 nM | ≤ 100 nM | 1000 to 10000 nM | ≤ 100 nM
CNc1ncc2cc(-c3c(F)ccc(NS(=O)(=O)c4cc(Cl)cnc4OC)c3F)c(C)nc2n1 [Example 27] | ≤ 100 nM | ≤ 100 nM | ≤ 100 nM | ≤ 100 nM | 1000 to 10000 nM | ≤ 100 nM
CNc1ncc2cc(-c3cc(NS(=O)(=O)c4cc(Cl)cnc4OC)ccc3C)cnc2n1 [Example 30] | ≤ 100 nM | 100 to 500 nM | ≤ 100 nM | ≤ 100 nM | 1000 to 10000 nM | ≤ 100 nM
COc1ncc(Cl)cc1S(=O)(=O)Nc1cccc(-c2ccc3nc(N)ncc3c2)c1F [Example 33] | 100 to 500 nM | ≤ 100 nM | ≤ 100 nM | ≤ 100 nM | 1000 to 10000 nM | ≤ 100 nM
COc1ncc(Cl)cc1S(=O)(=O)Nc1cccc(-c2ccc3nc(NC(C)=O)ncc3c2)c1F [Example 35] | ≤ 100 nM | 100 to 500 nM | ≤ 100 nM | ≤ 100 nM | 1000 to 10000 nM | ≤ 100 nM
CNc1ncc2cc(-c3cccc(NS(=O)(=O)c4cc(Cl)cnc4OC)c3F)ccc2n1 [Example 36] | ≤ 100 nM | ≤ 100 nM | ≤ 100 nM | ≤ 100 nM | 1000 to 10000 nM | ≤ 100 nM
CNc1ncc2cc(-c3cc(NS(=O)(=O)c4cc(Cl)cnc4OC)ccc3F)c(C)nc2n1 [Example 38] | 100 to 500 nM | 100 to 500 nM | ≤ 100 nM | 100 to 500 nM | 1000 to 10000 nM | ≤ 100 nM
CNc1ncc2cc(-c3cc(NS(=O)(=O)c4cc(Cl)cnc4OC)ccc3F)c(NC)nc2n1 [Example 39] | 100 to 500 nM | 100 to 500 nM | ≤ 100 nM | 100 to 500 nM | 1000 to 10000 nM | ≤ 100 nM
CNc1cc2nc(C)c(-c3cc(NS(=O)(=O)c4cc(Cl)cnc4OC)ccc3F)cc2cn1 [Example 44] | ≤ 100 nM | ≤ 100 nM | ≤ 100 nM | ≤ 100 nM | 1000 to 10000 nM | ≤ 100 nM
CNc1cc2nc(C)c(-c3cccc(NS(=O)(=O)c4cc(Cl)cc(CO)c4Cl)c3F)cc2cn1 [Example 45] | ≤ 100 nM | ≤ 100 nM | ≤ 100 nM | ≤ 100 nM | 100 to 500 nM | ≤ 100 nM
CNc1ncc2cc(-c3cc(NS(=O)(=O)c4cc(Cl)cnc4OC)cc(F)c3F)c(C)nc2n1 [Example 48] | 100 to 500 nM | 100 to 500 nM | ≤ 100 nM | ≤ 100 nM | 1000 to 10000 nM | ≤ 100 nM
CNc1ncc2cc(-c3cccc(NS(=O)(=O)c4cc(Cl)cnc4NC)c3F)ccc2n1 [Example 50] | ≤ 100 nM | ≤ 100 nM | ≤ 100 nM | ≤ 100 nM | 1000 to 10000 nM | ≤ 100 nM
CNc1ncc2cc(-c3cccc(NS(=O)(=O)c4cc(Cl)cnc4OC)c3C)c(C)nc2n1 [Example 51] | ≤ 100 nM | 100 to 500 nM | ≤ 100 nM | ≤ 100 nM | 1000 to 10000 nM | ≤ 100 nM
CNc1ncc2cc(-c3cc(NS(=O)(=O)c4cc(Cl)cnc4OC)ccc3C)c(C)nc2n1 [Example 53] | ≤ 100 nM | 100 to 500 nM | ≤ 100 nM | ≤ 100 nM | 1000 to 10000 nM | ≤ 100 nM
CNc1cc2ncc(-c3cccc(NS(=O)(=O)c4cc(Cl)cnc4OC)c3F)cc2cn1 [Example 56] | ≤ 100 nM | ≤ 100 nM | 100 to 500 nM | ≤ 100 nM | 500 to 1000 nM | ≤ 100 nM
CNc1ncc2cc(-c3cc(F)cc(NS(=O)(=O)c4cc(Cl)cc(CO)c4Cl)c3)c(NC)nc2n1 [Example 57] | ≤ 100 nM | ≤ 100 nM | ≤ 100 nM | ≤ 100 nM | 1000 to 10000 nM | ≤ 100 nM
